{
  "source": "patent US9957236B2",
  "about": "“Selective inhibitors interfering with fibroblast growth factor receptor and FRS2 interaction for the prevention and treatment of cancer and other diseases” (LIMITED LIABILITY COMPANY “RUSSIAN PHARMACEUTICAL …, priority 2014, dated 2018)",
  "key": {"[1]": {"test": "Toxicity assessment in the in vivo studies of Example 13", "details": "nude mice, 30 mg/kg daily through a stomach tube", "protocol": "Toxicity of inhibitor RPT835 was assessed in in vivo studies described in Example 13. According to the standard procedure, all undesirable events were assessed, as well as loss of weight by animals, when the inhibitor is used compared to the control group."}, "[2]": {"test_system": "human ovarian cancer SKOV-3", "test": "Pathomorphosis of SKOV-3 ovarian tumor in nude mice", "type": "in vivo", "details": "SKOV-3 in nude mice", "protocol": "Immunodefficient mice (Nude, age of the mice as of the treatment start is 8 weeks; nursery “Pushchino”) were subcutaneously inoculated cells of FGFR2 of expressing line of human ovarian cancer SKOV-3. When the average tumor volume of 200 mm3 was achieved, the mice were randomized into the groups of control (standard chemotherapy with paclitaxel and caroplatin) and treatment (inhibitor RPT835). There were 10 mice in each group. Inhibitor RPT835 was assigned in a dose of 50 mg/kg, daily. The tumor volume was measured twice a week. When the tumor volume reached 2,000 mm3, the mice were subjected to euthanasia. Pathomorphosis of the tumor tissue was studied."}, "[3]": {"test_system": "SVEC-4-10 endothelial cells", "test": "Crystal Violet proliferation assay, SVEC-4-10", "type": "cell-based", "details": "SVEC-4-10, strongly expresses FGFR2; bFGF 100 ng/ml, 7 days", "text": "This research used additional cell lines: SKOV3 (ovarian cancer, ATCC # HTB-77), HS578T (breast cancer, ATCC # HTB-126), T47D (breast cancer, ATCC #HTB-1336), modified line of non-small cells lung cancer A549, line of metastatic melanoma of skin Mel Kor (RF Patent No. 2287578), and additional study of antiangiogenic activity—cell line SVEC-4-10 (endothelial cells, ATCC #CRL-2181).\nThe cells were cultivated in environment RPMI-1640 (PANECO) (SKOV3, HS578T, T47D, Mel-Kor) or DMEM (PANECO) (SVEC-4-10) containing 10% of embryonal serum cattle (FCS, HyClone), 2 mM glutamine (PANECO), antibiotics (100 IU/mL penicillin and […] streptomycin (all PANECO)) at 37° C. and 5% CO2. Cells at 70-80% monolayer were used for the experiments.\nThe cells were planted in low density (30 t of cells/ml) in triplets on a 96-cavity plate in an environment containing 0.1% of FCS serum. […] Growth of cells was determined by the modified “Crystal Violet mitogenic method” for 7 days after the experiment start. […] The dye was dissolved in ethanol and measured on a spectrophotometer at 540-560 nm. The curve of cell proliferative activity inhibition was built by the dependence of the percent of the cell quantity (Y axis) on concentration of inhibitor RPT835 in the cavity of the plate (X axis). […]"}, "[4]": {"test_system": "angiogenesis stimulated by bFGF", "test": "Matrigel implant angiogenesis stimulated by bFGF", "type": "in vivo, mice", "protocol": "Eighteen hybrid mice of the 1 generation F1 (C57B1/6×DBA/2), males with a weight of 22-30 g are used in the research. The mice (nomenclature number M02.13.00011) were received from a branch of nursery “Stolbovaya”. The method described earlier was used in the experiment [Passaniti A., 1992]. The control and experiment groups had at least 3 mice. Aliquots (1,000 mcl) of Matrigel (BD Biosciences) containing heparin 60 conventional units/ml, VEGF (200 ng/ml, BD Biosciences) or bFGF (100 ng/ml, BD Biosciences) were prepared on ice. Matrigel containing heparin 60 conventional units/ml was used as negative control. Matrigel was injected in the mice subcutaneously into the side part of the back. After injection, Matrigel quickly forms single, hard gel-like implant. A weight of the inhibitor was dissolved in DMSO to concentration of 10^−2M. Aliquots were frozen down to −20° C. and unfrozen immediately before injection. Refreezing of the solution was not allowed. The tested and standard objects were administered intraperitoneally on the 0, 3 and 6 day of Matrigel impintation: Bevacizumab in a dose of 10 mg/kg and RPT835-15 mg/kg. Seven days after administration of Matrigel, the mice were put into sleep with diethyl ether to remove the implant. The implants were fixed for 24-36 hours in 10% neutral formalin and enclosed in paraffin for further histological research."}, "[5]": {"test_system": "p44/42(MAPK), Akt, mTOR, p70S6", "test": "Phosphorylation of intracellular kinases in KATO III cells", "type": "cell-based", "details": "FGF-2 and heparin", "protocol": "In order to access the effect of inhibitor RPT835, characterized in his invention by formula II, on phosphorylation of the listed kinases, stomach cancer cells KATO III, which express FGFR2, was used. FGF-2 in concentration 1 mg/ml and heparin 10 mg/ml was added to the cells for stimulation of FGFR. RPT835 was added in various concentrations. Part of the cells left without addition of the inhibitor, and a part of the cells—without addition of both the inhibitor, and stimulating agents (control groups).\nIn order to assess the phosphorylation level, 2 standard methods were used: • Western-blotting using manual work. • Automatic capillary electrophoresis and immune-detection using automatic system Wes™ (ProteinSimple; SantaClara, Calif.)."}, "[6]": {"details": "Matrigel + bFGF, 15 mg/kg intraperitoneally day 0, 3, 6, p<0.001"}},
  "data": [
    {"smiles": "Cc1cc([N+](=O)[O-])c(NS(=O)(=O)c2cccc(C(=O)O)c2)cc1-c1cccnc1", "note": "[RPT835, 3-(N-(4-methyl-2-nitro-5-(pyridin-3-yl)phenyl)sulfamoyl)benzoic acid]", "values": [
      {"measurement": "weight loss and undesirable side effects of the therapy", "setting": "[1]", "result": "Neither weight loss, nor any undesirable side effects"},
      {"measurement": "part of the tumor represented by massive necroses", "setting": "[2]; 50 mg/kg daily", "result": "over 75%"},
      {"measurement": "pathomorphosis of the tumor tissue", "setting": "[2]; RPT835 50 mg/kg daily, control standard chemotherapy with paclitaxel and caroplatin", "result": "Pronounced therapeutic pathomorphosis"},
      {"measurement": "inhibition of proliferative activity", "setting": "[3]", "result": "maximum inhibiting effect"},
      {"measurement": "decrease of number of functional micro-vessels compared to the control group", "setting": "[4]; [6]", "result": "more than 2 fold"},
      {"measurement": "decrease of number of migrated cells compared to the control group", "setting": "[4]; [6]", "result": "more than 2 fold"},
      {"measurement": "decrease of number of tubular structures compared to the control group", "setting": "[4]; Matrigel + bFGF, 15 mg/kg intraperitoneally day 0, 3, 6, p=0.016", "result": "more than 2 fold"},
      {"measurement": "angiogenesis stimulated by bFGF", "setting": "[4]; Matrigel implants in mice, intraperitoneally day 0, 3, 6, RPT835 15 mg/kg, Bevacizumab 10 mg/kg", "result": "effectively inhibited"},
      {"measurement": "activity (phosphorylation) of p44/42(MAPK), Akt, mTOR, p70S6 compared to cells stimulated only with FGF-2", "setting": "[5]", "result": "did not change"}
    ]}
  ]
}
